System: adjuvant-associated biological themes in LV, SP, LN
In short: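 Enrichment score S sums −log(p) over consensus themes whose names contain a pre-selected adjuvant-associated term such as "stress" or "cytokine". Consensus requires a theme in all three mice of a group, p<0.05. Themes come from TargetMine analysis of genes with eij/ei(c)>2.0, Fisher's exact test, Holm-Bonferroni-corrected.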

CC(O)COC[C@H]1O[C@@H]2O[C@H]3[C@H](O)[C@@H](O)[C@@H](O[C@H]4[C@H](O)[C@@H](O)[C@@H](O[C@H]5[C@H](O)[C@@H](O)[C@@H](O[C@H]6[C@H](O)[C@@H](O)[C@@H](O[C@H]7[C@H](O)[C@@H](O)[C@@H](O[C@H]8[C@H](O)[C@@H](O)[C@@H](O[C@H]1[C@H](O)[C@H]2O)O[C@@H]8COCC(C)O)O[C@@H]7COCC(C)O)O[C@@H]6COCC(C)O)O[C@@H]5COCC(C)O)O[C@@H]4COCC(C)O)O[C@@H]3COCC(C)O (stereo partly drawn) [bCD, Hydroxypropyl-beta-cyclodextrin]
GO annotation: positive regulation of cell death (Term: cell death) (LV, ID): 0
GO annotation: positive regulation of cell migration (Term: migration) (LV, ID): 0
GO annotation: positive regulation of chemokine production (Term: chemokine) (LV, ID): 0
GO annotation: positive regulation of chemotaxis (Term: chemotaxis) (LV, ID): 0
GO annotation: positive regulation of cytokine biosynthetic process (Term: cytokine) (LV, ID): 0
GO annotation: positive regulation of cytokine production (Term: cytokine) (LV, ID): 0
GO annotation: positive regulation of defense response (Term: defense response) (LV, ID): 0
GO annotation: positive regulation of immune response (Term: immune response) (LV, ID): 0
GO annotation: positive regulation of inflammatory response (Term: inflammatory response) (LV, ID): 0
GO annotation: positive regulation of innate immune response (Term: innate immune response) (LV, ID): 0
GO annotation: positive regulation of interferon-alpha production (Term: IFN alpha) (LV, ID): 0
GO annotation: positive regulation of leukocyte chemotaxis (Term: chemotaxis) (LV, ID): 0
GO annotation: positive regulation of leukocyte migration (Term: migration) (LV, ID): 0
GO annotation: positive regulation of programmed cell death (Term: cell death) (LV, ID): 0
GO annotation: positive regulation of response to wounding (Term: wounding) (LV, ID): 0
GO annotation: positive regulation of tumor necrosis factor superfamily cytokine (Term: cytokine) (LV, ID): 0
GO annotation: production of molecular mediator of immune response (Term: immune response) (LV, ID): 0
GO annotation: programmed cell death (Term: cell death) (LV, ID): 0
GO annotation: regulation of I-kappaB kinase/NF-kappaB signaling (Term: NF-kappa B signaling pathway) (LV, ID): 0
GO annotation: regulation of adaptive immune response (Term: adaptive immune response) (LV, ID): 0
GO annotation: regulation of apoptotic process (Term: apoptosis) (LV, ID): 0
GO annotation: regulation of apoptotic signaling pathway (Term: apoptosis) (LV, ID): 0
GO annotation: regulation of cell death (Term: cell death) (LV, ID): 0
GO annotation: regulation of cell migration (Term: migration) (LV, ID): 0
GO annotation: regulation of chemokine production (Term: chemokine) (LV, ID): 0
GO annotation: regulation of chemotaxis (Term: chemotaxis) (LV, ID): 0
GO annotation: regulation of cytokine biosynthetic process (Term: cytokine) (LV, ID): 0
GO annotation: regulation of cytokine production (Term: cytokine) (LV, ID): 4.06
GO annotation: regulation of defense response (Term: defense response) (LV, ID): 6.85
GO annotation: regulation of defense response to virus (Term: defense response) (LV, ID): 0
GO annotation: regulation of defense response to virus by host (Term: defense response) (LV, ID): 0
GO annotation: regulation of immune response (Term: immune response) (LV, ID): 0
GO annotation: regulation of inflammatory response (Term: inflammatory response) (LV, ID): 7.33
GO annotation: regulation of innate immune response (Term: innate immune response) (LV, ID): 0
GO annotation: regulation of interferon-alpha production (Term: IFN alpha) (LV, ID): 0
GO annotation: regulation of intrinsic apoptotic signaling pathway (Term: apoptosis) (LV, ID): 0
GO annotation: regulation of leukocyte chemotaxis (Term: chemotaxis) (LV, ID): 0
GO annotation: regulation of leukocyte migration (Term: migration) (LV, ID): 0
GO annotation: regulation of programmed cell death (Term: cell death) (LV, ID): 0
GO annotation: regulation of response to stress (Term: stress) (LV, ID): 0
GO annotation: regulation of response to wounding (Term: wounding) (LV, ID): 6.31
GO annotation: regulation of tumor necrosis factor superfamily cytokine production (Term: cytokine) (LV, ID): 0
GO annotation: response to cytokine (Term: cytokine) (LV, ID): 7.77
GO annotation: response to interferon-alpha (Term: IFN alpha) (LV, ID): 0
GO annotation: response to stress (Term: stress) (LV, ID): 10.4
GO annotation: response to wounding (Term: wounding) (LV, ID): 5.85
GO annotation: taxis (Term: chemotaxis) (LV, ID): 0
GO annotation: tumor necrosis factor superfamily cytokine production (Term: cytokine) (LV, ID): 0
IFN beta: cellular response to interferon-beta (LV, ID): 0
IFN beta: interferon-beta production (LV, ID): 0
IFN beta: positive regulation of interferon-beta production (LV, ID): 0
IFN beta: regulation of interferon-beta production (LV, ID): 0
IFN beta: response to interferon-beta (LV, ID): 0
IFN gamma: cellular response to interferon-gamma (LV, ID): 0
IFN gamma: interferon-gamma production (LV, ID): 0
IFN gamma: regulation of interferon-gamma production (LV, ID): 0
IFN gamma: response to interferon-gamma (LV, ID): 0
interleukin-6: interleukin-6 production (LV, ID): 0
interleukin-6: positive regulation of interleukin-6 production (LV, ID): 0
interleukin-6: regulation of interleukin-6 production (LV, ID): 0
interleukin-12: interleukin-12 production (LV, ID): 0
interleukin-12: positive regulation of interleukin-12 production (LV, ID): 0
interleukin-12: regulation of interleukin-12 production (LV, ID): 0
GO annotation: adaptive immune response based on somatic recombination of immune receptors built from immunoglobulin superfamily domains (Term: adaptive immune response) (mouse, in vivo): 0
GO annotation: regulation of adaptive immune response based on somatic recombination of immune receptors built from immunoglobulin superfamily domains (Term: adaptive immune response) (mouse, in vivo): 0

Source: US20230021483A1, “[…] […] METHOD AND CLASSIFICATION OF PHARMACEUTICAL COMPONENTS BY USING TRANSCRIPTOMES” (National Institutes of Biomedical Innovation, Health and …, priority 2016, published 2023)
